Experimental data taken from ChEMBL document CHEMBL1268979, “Discovery of highly potent and efficacious MC4R agonists with spiroindane N-Me-1,2,4-triazole privileged structures for the treatment of obesity” (Bioorg Med Chem Lett, 2010).
Activity calls are given as the source filed them. The rule behind the calls is not given here.

Columns and labels:
[1] = target: T1, Melanocortin receptor 4 (Homo sapiens, UniProt P32245); test: Inhibition of human MC4 receptor
[2] = target: T1, Melanocortin receptor 4; test: Agonist activity at human MC4 receptor; format: functional
[3] = Agonist activity at human MC1b receptor; format: functional
[4] = target: T1, Melanocortin receptor 4; test: Agonist activity at human MC4 receptor assessed as receptor activation; format: functional
[5] = species: Homo sapiens; test: Agonist activity at human MC1b receptor assessed as receptor activation; format: functional; design: concentration or dose not given beside the values
[6] = Oral bioavailability in Sprague-Dawley rat at 1 mg/kg, iv and 4 mg/kg, po; format: ADME, organism-based; conditions: in vivo
[7] = Clearance in Sprague-Dawley rat at 1 mg/kg, iv and 4 mg/kg, po; format: ADME, organism-based; conditions: in vivo
[8] = Volume of distribution in Sprague-Dawley rat at 1 mg/kg, iv and 4 mg/kg, po; format: ADME, organism-based; conditions: in vivo
[9] = Half life in Sprague-Dawley rat at 1 mg/kg, iv and 4 mg/kg, po; format: ADME, organism-based; conditions: in vivo
[10] = test system: Mus musculus; test: Reduction in food intake in DIO mouse obesity model at 20 mg/kg, po after 18 hrs; format: functional
[11] = test system: Mus musculus; test: Reduction in food intake in DIO mouse obesity model at 6 mg/kg, po after 18 hrs; format: functional
[12] = test system: Mus musculus; test: Reduction in food intake in DIO mouse obesity model at 3 mg/kg, po after 18 hrs; format: functional
[13] = test system: Mus musculus; test: Reduction in food intake in DIO mouse obesity model at 20 mg/kg, po after 4 hrs; format: functional
[14] = test system: Mus musculus; test: Reduction in food intake in DIO mouse obesity model at 6 mg/kg, po after 4 hrs; format: functional
[15] = test system: Mus musculus; test: Reduction in food intake in DIO mouse obesity model at 3 mg/kg, po after 4 hrs; format: functional
[16] = test system: Mus musculus; test: Reduction in food intake in wild type mouse at 20 mg/kg, po after 4 hrs; format: functional
[17] = test system: Mus musculus; test: Reduction in food intake in wild type mouse at 10 mg/kg, po after 4 hrs; format: functional
[18] = test system: Mus musculus; test: Reduction in food intake in wild type mouse at 20 mg/kg, po after 18 hrs; format: functional
[19] = test system: Mus musculus; test: Reduction in food intake in wild type mouse at 10 mg/kg, po after 18 hrs; format: functional
[20] = test system: Mus musculus; test: Reduction in food intake in DIO mouse obesity model at 10 mg/kg, po measured for 18 hrs; format: functional
[21] = test system: Mus musculus; test: Reduction in food intake in DIO mouse obesity model at 1 mg/kg, po measured for 18 hrs; format: functional
[22] = test system: Mus musculus; test: Reduction in food intake in DIO mouse obesity model at 3 mg/kg, po measured for 18 hrs; format: functional
[23] = test system: Mus musculus; test: Reduction in body weight in DIO mouse obesity model at 20 mg/kg, po after 4 hrs; format: functional, organism-based; design: dose 20 mg/kg
[24] = test system: Mus musculus; test: Reduction in body weight in DIO mouse obesity model at 6 mg/kg, po after 4 hrs; format: functional, organism-based; design: dose 6 mg/kg
[25] = test system: Mus musculus; test: Reduction in body weight in DIO mouse obesity model at 3 mg/kg, po after 4 hrs; format: functional, organism-based; design: dose 3 mg/kg
[26] = test system: Mus musculus; test: Reduction in food intake in MC4R/3R knockout mouse at 10 mg/kg, po after 4 hrs; format: functional
[27] = test system: Mus musculus; test: Reduction in food intake in MC4R/3R knockout mouse at 10 mg/kg, po after 18 hrs; format: functional

T1 sequence (P32245 whole entry): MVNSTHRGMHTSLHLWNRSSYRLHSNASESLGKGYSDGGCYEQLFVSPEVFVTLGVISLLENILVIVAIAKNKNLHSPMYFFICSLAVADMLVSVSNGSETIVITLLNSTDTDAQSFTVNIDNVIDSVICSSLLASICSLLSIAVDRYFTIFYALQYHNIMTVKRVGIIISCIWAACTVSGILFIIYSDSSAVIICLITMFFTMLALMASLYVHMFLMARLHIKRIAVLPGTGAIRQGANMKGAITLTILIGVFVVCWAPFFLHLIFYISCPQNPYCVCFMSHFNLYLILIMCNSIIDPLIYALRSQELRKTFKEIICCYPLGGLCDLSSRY

Row | SMILES | IC50 [1] [nM] | EC50 [2] [nM] | EC50 [3] [nM] | Activity [4] [%] | Activity [5] [%] | bioavailability [6] [%] | clearance [7] [mL/min/kg] | Vd [8] [L/kg] | half-life [9] [h] | inhibition in vivo at 20 mg/kg [10] [%] | inhibition in vivo at 6 mg/kg [11] [%] | inhibition in vivo at 20 mg/kg [13] [%] | inhibition in vivo at 6 mg/kg [14] [%] | inhibition in vivo at 3 mg/kg [15] [%] | inhibition in vivo at 20 mg/kg [16] [%] | inhibition in vivo at 10 mg/kg [17] [%] | inhibition in vivo at 20 mg/kg [18] [%] | inhibition in vivo at 10 mg/kg [19] [%] | further results
1 | Cc1cc2c(cc1Cl)C1(CCN(C(=O)[C@@H]3CN(C(C)(C)C)C[C@H]3c3ccc(F)cc3F)CC1)CC2C(C)(C)c1nnco1 (stereo in doubt; 5d2) [listing 1 of 2 here] | 1.3 | 2.2 | 138 |  |  |  |  |  |  |  |  |  |  |  |  |  |  |  | 
2 | Cc1cc2c(cc1Cl)C1(CCN(C(=O)[C@@H]3CC(N(C)C4CCOCC4)C[C@H]3c3ccc(F)cc3F)CC1)C[C@@H]2C(C)(C)c1ncnn1C (stereo not given in full) | 0.43 | 0.11 | 250 | 99 | 49 | 20 | 24 | 9.7 | 5.1 | 17 | 28 | 39 | 56 | 31 | 35 | 46 | 18 | 30 | inhibition in vivo at 3 mg/kg [12]: 15%; inhibition in vivo at 10 mg/kg [20]: 31%; inhibition in vivo at 1 mg/kg [21]: 32%; inhibition in vivo at 3 mg/kg [22]: 56%; Activity [23]: Active; Activity [24]: Active; Activity [25]: Active
3 | Cc1cc2c(cc1Cl)C1(CCN(C(=O)[C@@H]3CN(C(C)(C)C)C[C@H]3c3ccc(F)cc3F)CC1)CC2C(C)(C)c1nnco1 (stereo in doubt; 5d1) [listing 1 of 2 here] | 49 | 211 |  |  |  |  |  |  |  |  |  |  |  |  |  |  |  |  | 
4 | Cc1cc2c(cc1Cl)C1(CCN(C(=O)[C@@H]3CN(C4CCOCC4)C[C@H]3c3ccc(F)cc3F)CC1)C[C@@H]2C(C)(C)c1ncnn1C | 0.84 | 0.9 | 708 | 105 | 54 | 35 | 37 | 10 | 3.4 | 11 | 18 | 31 | 37 | 19 | 28 | 40 | 13 | 22 | inhibition in vivo at 10 mg/kg [26]: 20%
5 | Cc1cc2c(cc1Cl)C1(CCN(C(=O)[C@@H]3CCN(C(C)(C)C)C[C@H]3c3ccc(F)cc3F)CC1)C[C@@H]2C(C)(C)c1ncnn1C | 1.7 | 2.4 | 1050 | 96 | 37 | 86 | 22 | 19 | 11 | 15 | 31 | 30 | 47 | 29 | 24 | 46 | 17 | 37 | inhibition in vivo at 3 mg/kg [12]: 8%; inhibition in vivo at 10 mg/kg [26]: 40%; inhibition in vivo at 10 mg/kg [27]: 19%
6 | Cc1nnc(C(C)(C)[C@H]2CC3(CCN(C(=O)[C@@H]4CN(C(C)(C)C)C[C@H]4c4ccc(F)cc4F)CC3)c3cc(Cl)c(C)cc32)o1 | 1.9 | 2.3 | 1140 | 97 | 88 |  |  |  |  |  |  |  |  |  |  |  |  |  | 
7 | Cc1cc2c(cc1Cl)C1(CCN(C(=O)[C@@H]3CN(C(C)(C)C)C[C@H]3c3ccc(F)cc3F)CC1)CC2C(C)(C)c1nnco1 (stereo in doubt; 5d2) [listing 2 of 2 here] |  |  |  | 92 | 57 |  |  |  |  |  |  |  |  |  |  |  |  |  | 
8 | Cc1cc2c(cc1Cl)C1(CCN(C(=O)[C@@H]3CN(C(C)(C)C)C[C@H]3c3ccc(F)cc3F)CC1)C[C@@H]2C(C)(C)c1ncnn1C | 0.41 | 0.23 | 125 | 106 | 80 | 26 | 6.7 | 5 | 9.4 | 18 | 27 | 38 | 51 | 29 | 24 | 47 | 17 | 32 | inhibition in vivo at 3 mg/kg [12]: 16%; inhibition in vivo at 10 mg/kg [26]: 67%; inhibition in vivo at 10 mg/kg [27]: 43%
9 | Cc1cc2c(cc1Cl)C1(CCN(C(=O)[C@@H]3CN(C(C)(C)C)C[C@H]3c3ccc(F)cc3F)CC1)CC2C(C)(C)c1cnn[nH]1 (stereo not given in full) | 16 | 4.2 | 1040 | 82 | 31 |  |  |  |  |  |  |  |  |  |  |  |  |  | 
10 | Cc1cnc(C(C)(C)[C@H]2CC3(CCN(C(=O)[C@@H]4CN(C(C)(C)C)C[C@H]4c4ccc(F)cc4F)CC3)c3cc(Cl)c(C)cc32)o1 | 9.7 | 48 | 1650 | 99 | 57 |  |  |  |  |  |  |  |  |  |  |  |  |  | 
11 | Cc1nc(C(C)(C)C2CC3(CCN(C(=O)[C@@H]4CN(C(C)(C)C)C[C@H]4c4ccc(F)cc4F)CC3)c3cc(Cl)c(C)cc32)no1 (stereo not given in full) | 5.7 | 14 | 855 | 71 | 46 |  |  |  |  |  |  |  |  |  |  |  |  |  | 
12 | Cc1cc2c(cc1Cl)C1(CCN(C(=O)[C@@H]3CN(C(C)(C)C)C[C@H]3c3ccc(F)cc3F)CC1)CC2C(C)(C)c1nnco1 (stereo in doubt; 5d1) [listing 2 of 2 here] |  |  |  | 117 | 10 |  |  |  |  |  |  |  |  |  |  |  |  |  | 
